This note sets out measurements from US4338122A, “Biocidal 2-aryl-1,3-cyclopentanedione compounds and alkali metal and ammonium salts thereof” (Union Carbide Corporation, priority 1980, dated 1982).

Experiment [1] has as its system egg of the two-spotted mite (Tetranychus urticae (Koch)). Kind of experiment: Mite Ovicide Test (egg). As to conditions: Table I; unhatched/hatched eggs four days after spraying. More on the design: key to Miticidal, Egg (control rating): A: Excellent Control; B: Partial Control; No Control. The class given is in vivo. As for the experimental part: (§1) Suspensions of the test compounds were prepared by dissolving one gram of compound in 50 milliliters of acetone in which had been dissolved 0.1 gram (10 percent of the weight of compound) of an alkylphenoxyethoxyethanol surfactant, as an emulsifying or dispersing agent. The resulting solution was mixed into 160 milliliters of water to give roughly 200 milliliters of a suspension containing the compound in finely divided form. The thus prepared stock suspension contained 0.5 percent by weight of compound. The test concentrations employed in the tests described herein below were obtained by diluting the stock suspension with water. The test procedures were as follows:
The test organism was the egg of the two-spotted mite (Tetranychus urticae (Koch)), as obtained from adults reared on Tendergreen bean plants under controlled conditions of 80°±5° F. and 50±5 percent relative humidity. Heavily infested leaves from a stock culture were placed on the primary leaves of two bean plants six to eight inches in height growing in a two-and-a-half inch clay pot. Females were allowed to oviposit for a period of 48 hours and then the leaves of the infested plants were dipped in a solution containing 800 parts of tetraethyl pyrophosphate per million parts of water in order to destroy the reproductory forms and thus prevent further egg laying. […] The plants were allowed to dry thoroughly. The test compounds were formulated by diluting the stock suspension with water to give a suspension containing varying amounts of test compound per million parts of final formulation. The potted plants (one pot per compound) were placed on a revolving turntable and sprayed with 100-110 milliliters of test compound formulation by use of a DeVilbis spray gun set at 40 spig. air pressure. This application which lasted 30 seconds, was sufficient to wet the plants to run-off. As a control, 100-110 milliliters of a water solution containing acetone and emulsifier in the same concentrations as the test compound formulation, but containing no test compound, were also sprayed on plants infested with eggs. The sprayed plants were held at 80°±5° F. and 50±5 percent relative humidity for four days, after which a microscopic examination was made of unhatched (dead) and hatched (living) eggs.
(§2) In these tests the pesticidal activity of the compounds against mites and mite eggs were rated as follows:
(§3) Tests were conducted in accordance with the procedures given at pages 32 to 37 supra. The results are expressed in the same manner as used in Table I, except with respect to miticidal activity. For mite adult and mite egg comparison purposes, results are given in parts per million (ppm) required for a 50 percent kill of mites or eggs, respectively.

Experiment [2] deals with two-spotted mite (Tetranychus urticae (Koch)), adults and nymphal stages. Description: Mite Foliage Spray Test (adult miticidal). The class given is in vivo. On the set-up: key to Miticidal, Adult (control rating): A: Excellent Control; B: Partial Control; No Control. As to conditions: Table I; mortality count four days after spraying. As for the experimental part:
as §1
Adults and nymphal stages of the two-spotted mite (Tetranychus urticae (Koch)), reared on Tendergreen bean plants at 80°±5° F. and 50±5 percent relative humidity, were the test organisms. Infested leaves from a stock culture were placed on the primary leaves of two bean plants six to eight inches in height, growing in a two-and-a-half inch clay pot. 150-200 Mites, a sufficient number for testing, transferred from the excised leaves to the fresh plants in a period of twenty-four hours. Following the twenty-four hour transfer period, the excised leaves were removed from the infested plants. The test compounds were formulated by diluting the stock suspension with water to provide suspensions containing the desired amount of test compound per million parts of final formulation. The potted plants (one pot per compound) were placed on a revolving turntable and sprayed with 100-110 milliliters of test compound formulation by use of a DeVilbis spray gun set at 40 psi. air pressure. This application, which lasted 30 seconds, was sufficient to wet the plants to run-off. As a control, 100-110 milliliters of a water solution containing acetone and emulsifier in the same concentrations as the test compound formulation, but containing no test compound, were also sprayed on infested plants. The sprayed plants were held at 80°±5° F. and 50±5 percent relative humidity for four days, after which, a mortality count of motile forms was made on the leaves of the test plants. Any individual which was capable of locomotion upon prodding was considered living.
as §2, §3

Take `O=C1C(c2ccc(Cl)cc2Cl)C(=O)C2CC=CCC12` (centres unmarked) [Cl Cl H (CH2 CHCHCH2), 8-(2',4'-dichlorophenyl)bicyclo[4.3.0]non-3-en-7,9-dione]: the “Miticidal, Egg (control rating)” value in experiment [1] is on record as “A”. The “Miticidal, Adult (control rating)” value in experiment [2] is “A”.
